In US20260355212A1 (priority 2022, published 2026) one finds IC50 data, which are given here for 13 compounds.

Read-outs that look alike come from different tables or passages of the source.

The target in assay [1] is MERS Mpro (Middle East respiratory syndrome-related coronavirus, UniProt K9N7C7). The assay can be described thus: biochemical. Also noted: species or system MERS-CoV.
Assay [2] concerns the target SARS-CoV-1 Mpro (Severe acute respiratory syndrome coronavirus, UniProt P0C6X7). The assay can be described thus: biochemical.
The target in assay [3] is HCoV-NL63 Mpro (Human coronavirus NL63, UniProt P0C6X5). Nature of the assay: HCoV-NL63 Mpro enzymatic inhibition assay (fluorescence). Format: biochemical. Summed up:
(§1)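 Steps: compound dilution series (3-fold, 10 doses) dispensed; Mpro added and pre-incubated 30 min at room temperature; substrate added; plates incubated 60 min at 30 °C; fluorescence measured at Ex/Em=340 nm/490 nm.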

Assay [4] concerns the target HCoV-OC43 Mpro (Human coronavirus OC43, UniProt P0C6X6). The assay can be described thus: HCoV-OC43 Mpro enzymatic inhibition assay (fluorescence). The assay is classed as biochemical. Put shortly: as §1
Assay [5] deals with HCoV-HKU1 Mpro (Human coronavirus HKU1, UniProt P0C6X2). The assay can be described thus: HCoV-HKU1 Mpro enzymatic inhibition assay (fluorescence). Format: biochemical. Summed up: as §1
Sequence of HCoV-HKU1 Mpro (P0C6X2 3335-3637 limits assumed): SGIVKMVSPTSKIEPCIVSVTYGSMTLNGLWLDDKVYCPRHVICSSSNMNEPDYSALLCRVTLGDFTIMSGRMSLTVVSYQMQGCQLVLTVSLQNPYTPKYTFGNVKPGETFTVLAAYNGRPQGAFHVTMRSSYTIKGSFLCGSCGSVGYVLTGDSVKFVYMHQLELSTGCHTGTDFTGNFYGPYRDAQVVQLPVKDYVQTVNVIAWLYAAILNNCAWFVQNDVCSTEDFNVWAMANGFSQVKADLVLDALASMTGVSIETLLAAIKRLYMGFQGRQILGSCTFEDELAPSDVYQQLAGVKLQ
Assay [6] concerns the target SARS-CoV-2 Mpro (Severe acute respiratory syndrome coronavirus 2, UniProt P0DTD1). The assay can be described thus: SARS-CoV-2 Mpro enzymatic inhibition assay (fluorescence). The assay is classed as biochemical. Summed up:
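Recombinant Mpro expressed in E. coli was preincubated 30 min at room temperature with 10-point, 3-fold serially diluted compound in duplicate. Fluorogenic substrate was then added and incubated 60 min at 30° C, and fluorescence read at Ex/Em 340/490 nm. IC50 came from a four-parameter fit of % inhibition.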

The target of assay [7] is HCoV-229E Mpro (Human coronavirus 229E, UniProt P0C6X1). Nature of the assay: HCoV-229E Mpro enzymatic inhibition assay (fluorescence). The assay is classed as biochemical.
Sequence of HCoV-229E Mpro (P0C6X1 2966-3267 limits assumed): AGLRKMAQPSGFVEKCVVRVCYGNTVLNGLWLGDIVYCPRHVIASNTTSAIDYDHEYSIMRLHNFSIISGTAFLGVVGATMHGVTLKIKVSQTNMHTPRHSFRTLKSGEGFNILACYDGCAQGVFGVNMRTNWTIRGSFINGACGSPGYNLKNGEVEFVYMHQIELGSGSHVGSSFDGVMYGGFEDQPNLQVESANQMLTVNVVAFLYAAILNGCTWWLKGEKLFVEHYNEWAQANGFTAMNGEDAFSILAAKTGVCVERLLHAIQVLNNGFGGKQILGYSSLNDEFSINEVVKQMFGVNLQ
[8] abbreviates: mean, 25 nM protein, 25 μM substrate, 30 min pre-incubation, 60 min at 30° C., read-out: Mpro_SARS-CoV-2 mean IC50.

Sequence of HCoV-OC43 Mpro (P0C6X6 3247-3549 limits assumed): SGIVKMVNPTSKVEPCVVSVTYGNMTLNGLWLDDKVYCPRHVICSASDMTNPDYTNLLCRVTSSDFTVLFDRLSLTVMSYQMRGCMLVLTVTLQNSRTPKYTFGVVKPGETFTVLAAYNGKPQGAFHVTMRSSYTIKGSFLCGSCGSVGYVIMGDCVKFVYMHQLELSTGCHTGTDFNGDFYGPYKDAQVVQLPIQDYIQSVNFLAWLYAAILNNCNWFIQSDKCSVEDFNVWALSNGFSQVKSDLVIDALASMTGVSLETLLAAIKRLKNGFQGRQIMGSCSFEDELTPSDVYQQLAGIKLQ
Sequence of MERS Mpro (K9N7C7 3248-3553 limits assumed): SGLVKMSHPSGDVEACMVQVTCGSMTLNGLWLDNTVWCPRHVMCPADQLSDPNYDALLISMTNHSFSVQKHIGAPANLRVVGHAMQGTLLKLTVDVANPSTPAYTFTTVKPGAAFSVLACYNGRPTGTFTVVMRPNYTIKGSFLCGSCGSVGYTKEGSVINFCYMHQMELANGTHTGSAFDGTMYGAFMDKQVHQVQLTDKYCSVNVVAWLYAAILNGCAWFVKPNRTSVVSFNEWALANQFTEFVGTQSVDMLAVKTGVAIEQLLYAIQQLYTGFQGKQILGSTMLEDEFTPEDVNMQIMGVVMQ
Sequence of HCoV-NL63 Mpro (P0C6X5 2940-3242 limits assumed): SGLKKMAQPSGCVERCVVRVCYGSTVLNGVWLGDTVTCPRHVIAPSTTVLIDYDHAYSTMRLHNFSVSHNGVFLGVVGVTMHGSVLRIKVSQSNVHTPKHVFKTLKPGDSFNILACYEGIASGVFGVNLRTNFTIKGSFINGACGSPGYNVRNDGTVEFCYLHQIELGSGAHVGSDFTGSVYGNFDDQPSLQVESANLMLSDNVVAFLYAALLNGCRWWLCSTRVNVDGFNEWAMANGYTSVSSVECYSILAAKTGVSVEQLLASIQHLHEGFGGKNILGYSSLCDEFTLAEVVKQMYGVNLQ

Take `O=C[C@H](C[C@@H]1CCNC1=O)NC(=O)[C@@H]1CC2(CC2)CN1C(=O)c1cc2c(F)cccc2[nH]1` [Compound 3, (S)-5-(4-fluoro-1H-indole-2-carbonyl)-N—((S)-1-oxo-3-((S)-2-oxopyrrolidin-3-yl)propan-2-yl)-5-azaspiro[2.4]heptane-6-carboxamide]: the IC50 turned out to be 0.11 µM in assay [1]; 0.0193 µM in assay [2]; 0.0178 µM in assay [3]; 0.025 µM in assay [4]; 0.00995 µM in assay [5]; 0.0101 µM in assay [6]. In assay [7], this compound came in with an IC50 of 0.0274 µM.

`CC(C)c1ccc(F)c2[nH]c(C(=O)N3C[C@H]4[C@@H]([C@H]3C(=O)N[C@H](C=O)C[C@@H]3CCNC3=O)C4(C)C)cc12` [Compound 39, (1R,2S,5S)-3-(7-fluoro-4-isopropyl-1H-indole-2-carbonyl)-6,6-dimethyl-N—((S)-1-oxo-3-((S)-2-oxopyrrolidin-3-yl)propan-2-yl)-3-azabicyclo[3.1.0]hexane-2-carboxamide]: the IC50 turned out to be 0.208 µM in assay [1]; 0.03 µM in assay [2]; 0.04 µM in assay [3]; 0.0351 µM in assay [4]; 0.016 µM in assay [5]; 0.0216 µM in assay [6]. In assay [7], this compound yielded an IC50 of 0.0264 µM.

For `O=C[C@H](C[C@@H]1CCNC1=O)NC(=O)[C@@H]1C[C@@H](C2CCCCC2)CN1C(=O)c1cc2c(F)cccc2[nH]1` [Compound 38, (2S,4S)-4-Cyclohexyl-1-(4-fluoro-1H-indole-2-carbonyl)-N—((S)-1-oxo-3-((S)-2-oxopyrrolidin-3-yl)propan-2-yl)pyrrolidine-2-carboxamide], the IC50 in assay [1] came out at 0.516 µM; in assay [2] it was 0.097 µM; in assay [3] it was 0.1 µM; in assay [4] it was 0.046 µM; in assay [5], 0.016 µM; in assay [6], 0.021 µM. Besides, the IC50 in assay [7] was 0.0416 µM.

For the compound `CC1(C)[C@@H]2[C@@H](C(=O)N[C@H](C=O)C[C@@H]3CCNC3=O)N(C(=O)c3[nH]c4ccccc4c3-c3ccccc3)C[C@@H]21` [Compound 122, (1R,2S,5S)-6,6-Dimethyl-N—((S)-1-oxo-3-((S)-2-oxopyrrolidin-3-yl)propan-2-yl)-3-(3-phenyl-1H-indole-2-carbonyl)-3-azabicyclo[3.1.0]hexane-2-carboxamide], the half-maximal inhibitory concentration (IC50) in assay [1] amounted to 1.55 µM; in assay [2] it was 0.234 µM; in assay [3], 1.02 µM; in assay [4], 0.423 µM; in assay [5], 0.366 µM; in assay [6], 0.162 µM. For the same compound, the IC50 in assay [7] worked out at 0.172 µM.

Turning to `CC(C)(C)CC(=O)N1C[C@H]2[C@@H]([C@H]1C(=O)N[C@H](C=O)C[C@@H]1CCNC1=O)C2(C)C` [Compound 95, (1R,2S,5S)-3-(3,3-Dimethylbutanoyl)-6,6-dimethyl-N—((S)-1-oxo-3-((S)-2-oxopyrrolidin-3-yl)propan-2-yl)-3-azabicyclo[3.1.0]hexane-2-carboxamide], the IC50 in assay [1] came out at 0.413 µM; in assay [2] it was 0.1 µM; in assay [3], 0.189 µM; in assay [4] it was 0.124 µM; in assay [5] it was 0.0644 µM; in assay [6] (setting [8]), 0.0455 µM. Also, in assay [7], half-maximal inhibition (IC50) was put at 0.0675 µM.

Take `Cc1ccc(F)c2[nH]c(C(=O)N3C[C@H]4[C@@H]([C@H]3C(=O)N[C@H](C=O)C[C@@H]3CCNC3=O)C4(C)C)cc12` [Compound 77, (1R,2S,5S)-3-(7-Fluoro-4-methyl-1H-indole-2-carbonyl)-6,6-dimethyl-N—((S)-1-oxo-3-((S)-2-oxopyrrolidin-3-yl)propan-2-yl)-3-azabicyclo[3.1.0]hexane-2-carboxamide]: the IC50 in assay [1] is 0.401 µM; in assay [2], 0.0276 µM; in assay [3], 0.0992 µM; in assay [4], 0.0838 µM; in assay [5] it was 0.0453 µM; in assay [6], 0.0331 µM. Also, the IC50 in assay [7] came to 0.0419 µM.

Regarding `COc1cccc2[nH]c(C(=O)N3C[C@H]4[C@@H]([C@H]3C(=O)N[C@H](C=O)C[C@@H]3CCNC3=O)C4(C)C)cc12` [Compound 65, (1R,2S,5S)-3-(4-Methoxy-1H-indole-2-carbonyl)-6,6-dimethyl-N—((S)-1-oxo-3-((S)-2-oxopyrrolidin-3-yl)propan-2-yl)-3-azabicyclo[3.1.0]hexane-2-carboxamide], the IC50 came to 0.32 µM in assay [1]; 0.0331 µM in assay [2]; 0.0241 µM in assay [3]; 0.0252 µM in assay [4]; 0.0211 µM in assay [5]; 0.027 µM in assay [6] (setting [8]). The same compound registered an IC50 in assay [7] of 0.038 µM.

In the case of `CC1(C)[C@@H]2[C@@H](C(=O)N[C@H](C=O)C[C@@H]3CCNC3=O)N(C(=O)CC3CCCC(F)(F)C3)C[C@@H]21` (stereo partly drawn) [Compound 22, (1R,2S,5S)-3-(2-(3,3-difluorocyclohexyl)acetyl)-6,6-dimethyl-N—((S)-1-oxo-3-((S)-2-oxopyrrolidin-3-yl)propan-2-yl)-3-azabicyclo[3.1.0]hexane-2-carboxamide], the IC50 was 0.123 µM in assay [1]; 0.0277 µM in assay [2]; 0.0371 µM in assay [3]; 0.0284 µM in assay [4]; 0.0105 µM in assay [5]; 0.0158 µM in assay [6]. The IC50 in assay [7] turned out to be 0.0244 µM.

Turning to `CC1(C)[C@@H]2[C@@H](C(=O)N[C@H](C=O)C[C@@H]3CCNC3=O)N(C(=O)Cc3ccc4c(c3)CCCC4)C[C@@H]21` [Compound 40, (1R,2S,5S)-6,6-Dimethyl-N—((S)-1-oxo-3-((S)-2-oxopyrrolidin-3-yl)propan-2-yl)-3-(2-(5,6,7,8-tetrahydronaphthalen-2-yl)acetyl)-3-azabicyclo[3.1.0]hexane-2-carboxamide], the IC50 in assay [1] amounted to 0.237 µM; in assay [2] it was 0.0353 µM; in assay [3], 0.0886 µM; in assay [4] it was 0.0457 µM; in assay [5], 0.0204 µM; in assay [6] it was 0.0217 µM. The same compound gave an IC50 in assay [7] of 0.0401 µM.

Regarding `CC1(C)[C@@H]2[C@@H](C(=O)N[C@H](C=O)C[C@@H]3CCNC3=O)N(C(=O)c3cc4ncccc4[nH]3)C[C@@H]21` [Compound 83, (1R,2S,5S)-6,6-dimethyl-N—((S)-1-oxo-3-((S)-2-oxopyrrolidin-3-yl)propan-2-yl)-3-(1H-pyrrolo[3,2-b]pyridine-2-carbonyl)-3-azabicyclo[3.1.0]hexane-2-carboxamide], the IC50 in assay [1] stood at 0.436 µM; in assay [2], 0.116 µM; in assay [3] it was 0.0589 µM; in assay [4], 0.0813 µM; in assay [5], 0.039 µM; in assay [6], 0.0355 µM. In assay [7], the IC50 was 0.0463 µM.

Regarding `Cc1cccc([C@@H](C)C(=O)N2C[C@H]3[C@@H]([C@H]2C(=O)N[C@H](C#N)C[C@@H]2CCNC2=O)C3(C)C)c1` [Compound 120], the IC50 in assay [1] amounted to 1.13 µM; in assay [2], 0.196 µM; in assay [3] (mean, 50 nM protein, 12.5 μM substrate, 30 min pre-incubation, 60 min at 30° C., read-out: Mpro_NL63 mean IC50), 1.4 µM; in assay [4] (mean, 25 nM protein, 12.5 μM substrate, 30 min pre-incubation, 60 min at 30° C., read-out: Mpro_OC43 mean IC50) it was 0.567 µM; in assay [5] (mean, 12.5 nM protein, 12.5 μM substrate, 30 min pre-incubation, 60 min at 30° C., read-out: Mpro_HKU1 mean IC50), 0.193 µM; in assay [6] (setting [8]), 0.151 µM. Moreover, the IC50 in assay [7] (mean, 50 nM protein, 12.5 μM substrate, 30 min pre-incubation, 60 min at 30° C., read-out: Mpro_229E mean IC50) was 0.299 µM.

`CC1(C)[C@@H]2[C@@H](C(=O)N[C@H](C=O)C[C@@H]3CCNC3=O)N(C(=O)c3cc4c(F)ccc(Cl)c4[nH]3)C[C@@H]21` [Compound 49, (1R,2S,5S)-3-(7-chloro-4-fluoro-1H-indole-2-carbonyl)-6,6-dimethyl-N—((S)-1-oxo-3-((S)-2-oxopyrrolidin-3-yl)propan-2-yl)-3-azabicyclo[3.1.0]hexane-2-carboxamide]: the IC50 came to 0.202 µM in assay [1]; 0.0294 µM in assay [2]; 0.0576 µM in assay [3]; 0.037 µM in assay [4]; 0.0234 µM in assay [5]; 0.023 µM in assay [6]. Moreover, in assay [7], 0.0315 µM corresponded to half-maximal inhibition (IC50).

On to `CC1CCC(CC(=O)N2C[C@H]3[C@@H]([C@H]2C(=O)N[C@H](C=O)C[C@@H]2CCNC2=O)C3(C)C)CC1` (stereo partly drawn) [Compound 52, (1R,2S,5S)-6,6-dimethyl-3-(2-(4-methylcyclohexyl)acetyl)-N—((S)-1-oxo-3-((S)-2-oxopyrrolidin-3-yl)propan-2-yl)-3-azabicyclo[3.1.0]hexane-2-carboxamide], for which the IC50 in assay [1] turned out to be 0.214 µM; in assay [2], 0.0326 µM; in assay [3], 0.0613 µM; in assay [4], 0.052 µM; in assay [5] it was 0.025 µM; in assay [6], 0.0246 µM. In assay [7], this compound registered an IC50 of 0.0314 µM.
